Results from PMC9354954, “Assessing Bioavailability and Bioactivity of 4-Hydroxythiazolidine-2-Thiones, Newly Discovered Glucosinolate Degradation Products Formed During Domestic Boiling of Cabbage” (Frontiers in Nutrition, 2022).

Legend:
[1] = Determination of log P (octanol/water); format: physicochemical; settings: room temperature; for concentration ratio in the octanol phase compared to the water phase: 18 h, triplicates; for logP at 18 h: octanol/water
Method: For the determination of log P of the HTTs, two solutions were used: water saturated with octanol and octanol saturated with water. […] The spiked octanol-water mixture was vortexed for 30 s and the mixture was incubated for 18 h at room temperature to obtain analyte equilibrium distribution. For determination of the log P-value, 50 μL of the water phase was taken and measured by HPLC-UV at 274 ± 2 nm with HPLC method 2 (see Section Stability of 4-Hydroxythiazolidine-2-Thiones in a Stomach Model) with an injection volume of 10 μL. The analyte concentration in the water phase was determined by using external calibration. The relative analyte content in the water phase was calculated by using the following equation:
analyte content in water phase in % =measured concentration in water phase of the mixture/2 · concentration in pure water reference ·100%
The relative analyte content in the octanol phase was calculated at 100% minus the relative analyte concentration in the water phase. The reported results are the mean ± SD of the three determined log P-values for the three repetitions.

HepG2 cells = assay: Uptake into HepG2 cells (supernatant before and after cell lysis, LC-MS/MS); format: in vitro ADME, human; settings: for Amount of analyte in supernatant after cell lysis / Amount of analyte in supernatant before cell lysis / Increase due to cell lysis: HepG2, 100 μM, 24 h
Method: Cells originated from a human liver cancer cell line (HepG2) were grown in RPMI-1640 medium + 10% FBS + 1% penicillin/streptomycin under cell culture conditions (37°C and 5% CO2 atmosphere) in T-75 flasks (Sarsted, Nümbrecht, Germany) until a confluence of approximately 50%. This medium and growing conditions were used for all experiments with HepG2 cells in this study. The medium was exchanged by fresh medium for control samples, or by fresh medium containing a concentration of 100 μM allyl HTT or 4-MSOB HTT. Afterward, the cells were incubated for an additional 24 h (each prepared for three cell passages). In the case of cell experiments, all allyl HTT or 4-MSOB HTT spiked media were sterile filtered using Filtropur S 0.2 sterile from Sarstedt AG & Co (Nümbrecht, Germany). After treatment, the medium of HepG2 cells (~80% confluence) was removed and cells were washed three times with 6 mL of PBS. In a second approach performed only for 4-MSOB HTT, treated cells were washed 6 times with 6 mL of PBS. The higher number of washing steps in the case of 4-MSOB HTT was chosen to remove the analyte residues from the former treatment medium more effectively. This enabled to detect a significant increase in analyte amount due to cell lysis when comparing the analyte amount in the supernatant before and after cell lysis, as only three washing steps for allyl HTT and control were not sufficient to detect a significant difference in 4-MSOB HTT amounts due to cell lysis treatment. Afterward, cells were detached from the surface by incubation with 1.5 mL trypsin/EDTA (1 x) for 5 min at 37°C. The cell suspension was transferred into a 2-mL micro reaction vessel and centrifuged for 2 min at 560 g. Then, the cell pellet was washed carefully twice with 1.5 mL of pure water to remove further residues of the analyte spiked medium and to reduce the salt concentration in the samples for LC-MS/MS measurements. For cell lysis, the micro reaction vessels with cell pellet and approximately 60 μL supernatant were sonicated for 15 min in an ultrasonic bath, followed by the addition of 40 μL of MeCN and an additional sonication step for 15 min. Afterward, the cell suspension was centrifuged for 3 min at 4,000 g, and the supernatant, as well as the supernatant before cell lysis, were analyzed by LC-MS/MS. A standard addition method was used, with added amounts of 3 pmol of allyl HTT and 1.2 pmol of 4-MSOB HTT. The mass spectrometry parameters were like QTRAP method 1 (see Section Uptake and Excretion of 4-Hydroxythiazolidine-2-Thiones From a Red Cabbage Meal – A Human Self-Experiment) with an injection volume of 10 μL. The used HPLC method 3 was a gradient of A = water and B = MeCN with 0 to 5 min 2% B, an increase to 14 min up to 98% B, holding for 5 min followed by a decrease to 2% B at 20 min and re-equilibration with 2% B for 4 min, using a flow rate of 300 μL/min, Agilent Zorbax Eclipse Plus C8 column (see Section Stability of 4-Hydroxythiazolidine-2-Thiones in a Stomach Model) and a column oven temperature of 35°C. The given results are the mean of the three biological replicates ± SD. […] The significance of the difference in analyte amount before and after cell lysis was determined by t-test for independent samples per variable using the STATISTICA version 13.5 software (StatSoft, Hamburg, Germany) with a significance level of p ≤ 0.05.

[2] = Estimation of permeability coefficients from plot of Levin data using measured partition coefficients; settings: for Papp: not told, estimated from plot of Levin data (ref 32) using measured octanol/water partition coefficients, read-out: estimated permeability coefficient
Source text: The log P-value is positive for compounds which are better soluble in the octanol phase, and is negative for compounds which are better soluble in the aqueous phase. To assess if the different uptake behavior of the two HTTs is based on their different polarity, the octanol/water partition coefficients of several compounds were plotted against their permeability coefficients, based on a previous report by Levin ([32]) (Supplementary Figure S5). The obtained plot was used to estimate the permeability coefficients of the two HTTs with 2 × 10^−4 cm/s for allyl HTT and 1.1 × 10^−5 cm/s for 4-MSOB HTT using the measured octanol/water partition coefficients of both compounds. The ratio of both estimated permeability coefficients was 18 and fitted very well to the measured ratios of 27-fold and 10-fold for the higher uptake of allyl HTT compared to 4-MSOB HTT in the experiments with HepG2 and Caco-2 cells. Therefore, the uptake of allyl HTT and 4-MSOB HTT in the in vitro assays can be primarily explained by simple passive diffusion through the cell membrane. Additionally, the fact that in both intestinal model experiments (transport of the analyte from the upper to the lower compartment, as well as from the lower to an upper compartment), the transport velocity was similar, and an equilibrium concentration between both compartments was reached, supporting the hypothesis of passive diffusion without the need of special transporters.
Figure S5: Plot of data reported by Levin (1980) to describe the correlation between the octanol/water partition coefficients of several compounds and their permeability coefficients. The red line and thin black lines were draw by the author and used to estimate the permeability coefficients of 3-allyl-4-hydroxythiazolidine-2-thione (allyl HTT) and 4-hydroxy-3-(4-(methylsulfinyl)butyl) thiazolidine-2-thione (4-MSOB HTT) using their measured octanol-water partition coefficients (black lines).

[3] = design: method as in PMID 35761548; settings: recently calculated; cited from earlier work

| SMILES | concentration ratio in the octanol phase compared to the water phase [1] | logP at 18 h [1] | Amount of analyte in supernatant after cell lysis (HepG2 cells; 3 washing steps) | Amount of analyte in supernatant before cell lysis (HepG2 cells; 3 washing steps) | Increase due to cell lysis (HepG2 cells; 3 washing steps) | Amount of analyte in supernatant after cell lysis (HepG2 cells; 6 washing steps) | Amount of analyte in supernatant before cell lysis (HepG2 cells; 6 washing steps) | Increase due to cell lysis (HepG2 cells; 6 washing steps) | Papp [2] | calculated log P (partition coefficient in octanol/water) [3] | measured ratio for the higher uptake of allyl HTT compared to 4-MSOB HTT (HepG2 cells; HepG2 cells) | ratio of both estimated permeability coefficients ([2]; allyl HTT vs 4-MSOB HTT) |
| --- | --- | --- | --- | --- | --- | --- | --- | --- | --- | --- | --- | --- |
| C[S+]([O-])CCCCN1C(=S)SCC1O (stereo not shown) [4-MSOB HTT, 4-hydroxy-3-(4-(methylsulfinyl)butyl)thiazolidine-2-thione] | 0.45 ± 0.04 | -0.35 ± 0.04 | 810 ± 140 fmol | 760 ± 190 fmol | 56 ± 55 fmol | 21 ± 5 fmol | 1.7 ± 0.3 fmol | 20 ± 5 fmol | 11 ×10⁻⁶ cm/s | −1.12 | – | – |
| C=CCN1C(=S)SCC1O (stereo not shown) [allyl HTT, 3-allyl-4-hydroxythiazolidine-2-thione] | 8.1 ± 0.4 | 0.91 ± 0.02 | 1,060 ± 140 fmol | 520 ± 170 fmol | 540 ± 160 fmol | – | – | – | 200 ×10⁻⁶ cm/s | 0.47 | 27 fold | 18 |
